Legend:
ob/ob mice = assay: Example 1: two-week treatment of female ob/ob mice (40-70 g) at light onset; type: in vivo; details: single drug, two weeks at light onset
Description: Female ob/ob mice (40-70 g bw) were treated for two weeks with either 1) bromocriptine (11 mg/kg) at light onset, 2) SKF38393 (20 mg/kg) at light onset, 3) bromocriptine plus SKF38393 at light onset, or 4) vehicle at light onset.

C57BL/6 ob/ob mice = assay: Example 2: two-week treatment of C57BL/6 ob/ob mice at 1 HALO; type: in vivo; details: for reduction of plasma free fatty acid level / reduction of plasma glucose concentration / reduction of plasma insulin level / reduction of plasma triglyceride level: mouse, in vivo; for Food Consumption / Plasma FFA / Plasma Glucose / Plasma Insulin / Plasma TG / Whole Body Lipid-Glycerol (% BW) / Whole Body Lipid-Glycerol (g) / Whole Body Protein (% BW) / Whole Body Protein (g) / Final Body Weight: ob/ob mice, two weeks; for Final Body Weight: sacrificed 24-26 hours after last treatment; for reducing body weight gain: single drug 10 mg/kg, two weeks at 1 HALO
Description: Different groups of 6-week old C57BL/6 ob/ob mice (lacking a functional leptin protein) were treated with either bromocriptine (“BC”) (10 mg/kg BW), SKF38393 (“SKF”) (10 mg/kg BW), both drugs, or vehicle for two weeks at 1 hour after light onset (HALO). Animals were held on 12-hour daily photoperiods and allowed to feed ad libitum. Food consumption was monitored daily for 3 days before the initiation of treatment throughout the 14-day treatment period. Animals were sacrificed between 1 and 3 HALO on the day following the final treatment (i.e., 24-26 hours after last injection) and plasma was collected for the analyses of insulin, glucose, and lipids while the carcasses were solubilized in ethanolic KOH and analyzed for protein and lipid content. Bromocriptine and SKF38393, individually, were ineffective in reducing body weight gain where as SKF, but not BC, reduced food consumption (19%, P<0.01). However, the combined treatment of bromocriptine and SKF38393 (BC/SKF) decreased food consumption by 46% (from 4.8±0.2 to 2.6±g/day; P<0.001) and body weight by 15% (from a 3.2 g increase in controls to a 4.3 g decrease; P<0.005) in 14 days of treatment (FIG. 16). Relative to controls, in absolute terms, the lipid content of the BC/SKF treated animals was decreased by 40% (from 4.2±0.2 to 2.5±0.3 g glycerol/animal; P<0.0003) whereas the protein content increased 8% (from 3.7±0.08 to 4.0±0.08 g/animal; P<0.05). […] This effect on body composition was observed by SKF (P<0.003) or BC (P<0.04) treatments alone, although to a lesser extent than by BC/SKF combination (P<0.05).

[1] = timed bromocriptine monotherapy, diastolic blood pressure; type: in vivo; details: humans, 4.8 mg/day at 8:00 AM
From the text: The benefits of the invention are not limited to modifying and regulating lipid and glucose metabolism. Other bodily functions, such as blood pressure, can be beneficially modified and regulated by timed administration of a D2 agonist (as monotherapy) in the dosage range disclosed above. […] Conjoined administration of a dopamine D1 agonist and […]

HMG-CoA reductase = molecular target: T1, HMG-CoA reductase (Homo sapiens, UniProt P04035); details: in vivo; cited from earlier work
T1 sequence (P04035 1-888): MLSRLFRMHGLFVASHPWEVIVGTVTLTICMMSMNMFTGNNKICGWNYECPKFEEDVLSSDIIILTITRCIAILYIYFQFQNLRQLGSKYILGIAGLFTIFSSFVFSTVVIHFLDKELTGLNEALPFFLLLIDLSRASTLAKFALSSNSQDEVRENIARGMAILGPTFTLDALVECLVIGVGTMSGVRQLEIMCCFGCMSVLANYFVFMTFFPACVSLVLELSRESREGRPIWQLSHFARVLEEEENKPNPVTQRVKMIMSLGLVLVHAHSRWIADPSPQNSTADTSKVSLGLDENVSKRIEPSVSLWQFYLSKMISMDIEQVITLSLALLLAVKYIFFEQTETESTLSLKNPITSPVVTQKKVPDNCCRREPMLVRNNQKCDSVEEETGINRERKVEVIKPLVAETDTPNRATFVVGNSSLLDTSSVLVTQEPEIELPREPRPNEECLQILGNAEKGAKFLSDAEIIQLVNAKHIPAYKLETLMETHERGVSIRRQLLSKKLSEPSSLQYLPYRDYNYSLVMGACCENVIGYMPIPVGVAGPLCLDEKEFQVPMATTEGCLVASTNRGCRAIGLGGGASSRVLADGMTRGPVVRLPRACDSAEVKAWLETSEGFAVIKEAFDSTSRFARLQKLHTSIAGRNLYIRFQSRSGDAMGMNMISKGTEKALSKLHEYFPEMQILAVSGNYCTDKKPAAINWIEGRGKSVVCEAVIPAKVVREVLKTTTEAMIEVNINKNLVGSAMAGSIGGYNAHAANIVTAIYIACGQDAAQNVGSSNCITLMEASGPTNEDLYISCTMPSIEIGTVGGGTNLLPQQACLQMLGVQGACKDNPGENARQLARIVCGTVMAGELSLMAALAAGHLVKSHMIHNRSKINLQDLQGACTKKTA

Oc1cc2c(cc1O)C(c1ccccc1)CNCC2 (centres unmarked) [SKF38393]
reductions in hyperphagia, body weight gain, and obesity (ob/ob mice): moderate reductions | reduction of food consumption (C57BL/6 ob/ob mice; BC 10 mg/kg, SKF 10 mg/kg, 14 days): 19% | reduction of plasma free fatty acid level (C57BL/6 ob/ob mice): neither BC nor SKF individually, reduced | reduction of plasma glucose concentration (C57BL/6 ob/ob mice): 43% | reduction of plasma insulin level (C57BL/6 ob/ob mice): not affected | reduction of plasma triglyceride level (C57BL/6 ob/ob mice): neither BC nor SKF individually, reduced | Food Consumption (C57BL/6 ob/ob mice): 3.9 ± 0.07^3,4,5 g/day | Plasma FFA (C57BL/6 ob/ob mice): 671 ± 36^3 uM | Plasma Glucose (C57BL/6 ob/ob mice): 218 ± 22^2 mg/dl | Plasma Insulin (C57BL/6 ob/ob mice): 50 ± 13 ng/mL | Plasma TG (C57BL/6 ob/ob mice): 234 ± 22^1 mg/dl | Whole Body Lipid-Glycerol (% BW) (C57BL/6 ob/ob mice): 6.0 ± 0.2^1 % BW | Whole Body Lipid-Glycerol (g) (C57BL/6 ob/ob mice): 3.1 ± 0.1^1 g | Whole Body Protein (% BW) (C57BL/6 ob/ob mice): 7.9 ± 0.1^1 % BW | Whole Body Protein (g) (C57BL/6 ob/ob mice): 4.1 ± 0.04^2 g | Final Body Weight (C57BL/6 ob/ob mice): 52 ± 0.7^2 g | reducing body weight gain (C57BL/6 ob/ob mice): ineffective

CC(C)C[C@H]1C(=O)N2CCC[C@H]2[C@]2(O)O[C@](NC(=O)[C@@H]3C=C4c5cccc6[nH]c(Br)c(c56)C[C@H]4N(C)C3)(C(C)C)C(=O)N12 [bromocriptine, 2-bromo-α-ergocriptine]
reductions in hyperphagia, body weight gain, and obesity (ob/ob mice): moderate reductions | diastolic blood pressure [1]: decrease significantly | reduction of plasma free fatty acid level (C57BL/6 ob/ob mice): neither BC nor SKF individually, reduced | reduction of plasma glucose concentration (C57BL/6 ob/ob mice): 31% | reduction of plasma insulin level (C57BL/6 ob/ob mice): 50% | reduction of plasma triglyceride level (C57BL/6 ob/ob mice): neither BC nor SKF individually, reduced | Food Consumption (C57BL/6 ob/ob mice): 4.5 ± 0.2^2,5 g/day | Plasma FFA (C57BL/6 ob/ob mice): 818 ± 64^2 uM | Plasma Glucose (C57BL/6 ob/ob mice): 262 ± 25^1 mg/dl | Plasma Insulin (C57BL/6 ob/ob mice): 30 ± 4^2 ng/ml | Plasma TG (C57BL/6 ob/ob mice): 405 ± 101 mg/dL | Whole Body Lipid-Glycerol (% BW) (C57BL/6 ob/ob mice): 7.0 ± 0.2^1 % BW | Whole Body Lipid-Glycerol (g) (C57BL/6 ob/ob mice): 3.7 ± 0.1^1 g | Whole Body Protein (% BW) (C57BL/6 ob/ob mice): 7.5 ± 0.1^1 % BW | Whole Body Protein (g) (C57BL/6 ob/ob mice): 4.0 ± 0.1^1 g | Final Body Weight (C57BL/6 ob/ob mice): 53 ± 0.7^2 g | reducing body weight gain (C57BL/6 ob/ob mice): ineffective

CC[C@H](C)C(=O)O[C@H]1C[C@@H](C)C=C2C=C[C@H](C)[C@H](CC[C@@H]3C[C@@H](O)CC(=O)O3)[C@H]21 [lovastatin]
increase in HDL concentrations (HMG-CoA reductase): 5-10%

From US6855707B2, “Method for the treatment of lipid and glucose metabolism disorders” (Pliva D.D., priority 1996, dated 2005)
